Data set [1] has as its target T1, opioid κ receptor (Cavia porcellus, UniProt P41144). Conditions: for selectivity ratio κ/δ: ratio of binding Ki values; for Ki: read-out: Ki (nM) ± SEM κ, displacement of [3H]U69,593 (1.2-[…]), guinea pig brain membranes. A general note: Displacement assays read how much labelled ligand stays bound in the presence of the test substance.
For a further data set, the target named is T2, opioid δ receptor (Rattus norvegicus, UniProt P33533).
T2 construct: Rat membranes are prepared each day using a partially thawed frozen rat brain; from tissue; host or cells: rat brain membranes
T2 sequence (P33533 whole entry): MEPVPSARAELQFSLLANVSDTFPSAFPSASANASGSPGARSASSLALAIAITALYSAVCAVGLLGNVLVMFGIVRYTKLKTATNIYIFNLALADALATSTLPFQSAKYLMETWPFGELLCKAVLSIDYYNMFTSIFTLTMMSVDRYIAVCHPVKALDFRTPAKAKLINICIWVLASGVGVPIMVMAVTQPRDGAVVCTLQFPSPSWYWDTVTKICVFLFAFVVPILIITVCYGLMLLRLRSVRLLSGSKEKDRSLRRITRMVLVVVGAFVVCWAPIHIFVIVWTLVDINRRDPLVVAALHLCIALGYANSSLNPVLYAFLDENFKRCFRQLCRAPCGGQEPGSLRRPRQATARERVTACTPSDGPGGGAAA
Put plainly: Opioid δ receptor binding, [3H]DADLE displacement in rat brain membranes.

In data set [2] the target is T3, opioid μ receptor (Rattus norvegicus, UniProt P33535). As to conditions: for selectivity ratio μ/δ: ratio of binding Ki values; for Ki: read-out: Ki (nM) ± SEM μ, displacement of [3H]DAMGO (1.4-3.0 nM), rat brain membranes.
T3 sequence (P33535 whole entry): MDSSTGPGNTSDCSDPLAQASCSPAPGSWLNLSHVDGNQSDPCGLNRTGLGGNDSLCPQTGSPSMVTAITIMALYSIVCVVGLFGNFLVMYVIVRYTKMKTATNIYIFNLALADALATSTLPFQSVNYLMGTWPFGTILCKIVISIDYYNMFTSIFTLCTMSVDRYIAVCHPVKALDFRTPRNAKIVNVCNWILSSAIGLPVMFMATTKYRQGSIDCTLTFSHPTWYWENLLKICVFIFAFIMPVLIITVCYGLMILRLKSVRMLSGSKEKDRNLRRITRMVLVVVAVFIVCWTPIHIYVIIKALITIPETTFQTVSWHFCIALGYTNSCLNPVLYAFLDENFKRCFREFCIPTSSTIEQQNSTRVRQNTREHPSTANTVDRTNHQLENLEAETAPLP
Data set [3] deals with T3, opioid μ receptor. Nature of the data set: biochemical.
For data set [4], the target named is T1, opioid κ receptor. Nature of the data set: biochemical.
The next data set concerns mice. Nature of the data set: 55° C. tail-flick antinociception test in mice. Conditions: for naloxone sensitivity: naloxone 10 mg/kg ip, -10 min, yes = greater than 80% reduction in the antinociceptive effect. The method, then: Analgesic Testing and Assessment of Tolerance Development. The analgesic activity of selected ligands is tested in mice using the 55° C. tail-flick test as previously described. (See Wells et al., supra.) The test compounds are administered by the intracerbroventricular (icv) route. […] To determine whether the analgesic activity of the tested compounds is mediated through opioid receptors, the blockade of antinociceptive activity by pretreatment with naloxone is carried out. The analgesic activity was considered as naloxone sensitive if greater than 80% reduction in the antinociceptive response is observed.
Antinociceptive Studies. Male ICR mice (Harlan) are used for all evaluations. Mice are housed in a temperature and humidity controlled vivarium on a 12:12 h light:dark cycle with unlimited access to food and water prior to the formal procedures. […] The dihydrochloride salt of 7h is dissolved in water and injected in a volume of 5 μL. All other compounds are dissolved in 100% DMSO and injected in a volume of 5 μL. Antinociceptive assays are performed at various times after injection.
Percent antinociception is calculated using the formula: % MPE (maximal possible effect)=100×(test−control)/(cutoff−control) where control is the predrug observation, test is the postdrug observation, and cutoff is the maximal length of stimulus allowed (10 s for 55° C. tail-flick). Antinociceptive A50 values and 95% confidence intervals are determined using linear regression software (FlashCalc). Opioid activity of the test compounds are assessed by pretreating animals with naloxone (10 mg/kg ip, −10 min) followed by an icv injection of an approximate A90 dose of test compound. […] Antinociception is assessed in the 55° C. tail-flick test at 10, 20 and 30 min. A positive response to a fixed dose of naloxone is indicated when greater than 80% reduction in the antinociceptive effect of the agonist is observed.

Data set [5] deals with T4, δ receptor (Cavia porcellus, UniProt A0A286XTF2). Nature of the data set: biochemical.
T4 sequence (A0A286XTF2 1-366): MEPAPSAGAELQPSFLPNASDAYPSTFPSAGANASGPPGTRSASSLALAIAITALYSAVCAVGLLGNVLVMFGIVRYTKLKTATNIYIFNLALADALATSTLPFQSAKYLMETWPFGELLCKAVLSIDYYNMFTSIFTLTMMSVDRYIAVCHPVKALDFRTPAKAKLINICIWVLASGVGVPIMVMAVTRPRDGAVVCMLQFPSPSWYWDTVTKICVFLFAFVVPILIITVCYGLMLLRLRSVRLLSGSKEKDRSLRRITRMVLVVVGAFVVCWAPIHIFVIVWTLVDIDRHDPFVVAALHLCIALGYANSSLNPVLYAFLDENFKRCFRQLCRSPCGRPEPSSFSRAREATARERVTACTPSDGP
Data set [6] has as its target T5, μ receptor (Cavia porcellus, UniProt A0ACM8Q262). Conditions: read-out: antagonist activity apparent Ki (nM ± SD) μ; inhibition of DAMGO (10 μM) stimulated [35S]GTP-γ-S binding. For orientation: GTPγS is a poorly hydrolysed GTP analogue; its binding reports G protein activation.
For data set [7], the target named is T6, κ receptor (Cavia porcellus, UniProt P41144). Nature of the data set: biochemical.
T6 sequence (P41144 whole entry): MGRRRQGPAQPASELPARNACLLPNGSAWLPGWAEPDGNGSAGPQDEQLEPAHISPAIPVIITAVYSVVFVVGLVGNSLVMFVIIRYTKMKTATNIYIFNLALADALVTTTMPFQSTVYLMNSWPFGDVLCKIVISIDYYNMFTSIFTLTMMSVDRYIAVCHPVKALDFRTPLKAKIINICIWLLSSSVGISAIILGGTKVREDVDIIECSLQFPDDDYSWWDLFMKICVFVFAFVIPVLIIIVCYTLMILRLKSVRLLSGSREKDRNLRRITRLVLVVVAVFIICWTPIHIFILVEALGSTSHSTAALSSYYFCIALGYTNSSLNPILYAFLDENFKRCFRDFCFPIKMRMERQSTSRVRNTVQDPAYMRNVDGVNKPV
Data set [8] deals with T7, δ receptor (mouse vas deferens) (Mus musculus, UniProt P32300). Put plainly: Mouse vas deferens (MVD) smooth muscle bioassay. Details: from tissue; host or cells: mouse vas deferens (male ICR mice). As to conditions: for antagonist activity MVD (δ) Ke: DPDPE as agonist, 1 μM compound, 30 min preincubation. As to the method: (§1) Bioassays in Smooth Muscle Preparations. The functional activity profiles of selected ligands are also determined in the mouse vas deferens (MVD) and guinea pig ileum (GPI) smooth muscle preparations as described previously.
T7 sequence (P32300 whole entry): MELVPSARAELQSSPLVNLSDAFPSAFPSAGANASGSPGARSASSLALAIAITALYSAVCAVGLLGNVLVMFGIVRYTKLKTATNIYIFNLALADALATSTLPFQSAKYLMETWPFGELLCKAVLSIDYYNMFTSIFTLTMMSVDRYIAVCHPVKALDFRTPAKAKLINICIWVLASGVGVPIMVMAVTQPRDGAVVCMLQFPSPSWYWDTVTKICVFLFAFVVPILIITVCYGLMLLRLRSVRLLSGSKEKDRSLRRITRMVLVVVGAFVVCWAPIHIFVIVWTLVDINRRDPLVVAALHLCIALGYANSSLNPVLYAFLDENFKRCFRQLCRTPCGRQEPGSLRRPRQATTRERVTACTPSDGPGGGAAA
(§2) The agonist activity is determined by the ability of the compound to inhibit electrically stimulated contractions of the GPI and MVD. The GPI is primarily a μ receptor preparation, even though the ileum does also contain κ receptors. In the MVD, the opioid effects are predominantly mediated through δ receptors, but μ and κ receptors also exist in this tissue.
(§3) Tissues came from male ICR mice weighing 25-40 g and male Hartley guinea pigs weighing 250-500 g. The tissues are tied to gold chain with suture silk, suspended in 20 mL baths containing 37° C. oxygenated (95% O2, 5% CO2) Krebs bicarbonate solution (magnesium free for the MVD), and allowed to equilibrate for 15 min. The tissues are then stretched to optimal length previously determined to be 1 g tension (0.5 g for MVD) and allowed to equilibrate for 15 min. The tissues are stimulated transmurally between platinum wire electrodes at 0.1 Hz, 0.4 ms pulses (2-ms pulses for MVD), and supramaximal voltage. […] Tissues not producing typical results are not used. Experimental compounds were added to the baths in 14-60 μL volumes. Succeeding doses of agonist are added cumulatively to the bath at 3 min intervals to produce a concentration-response curve. The tissues are then washed extensively with fresh buffer until the original contraction height is reestablished. […] The tissues are then washed with fresh buffer for 30 min, and the agonist dose-response curve was repeated. Rightward shifts in the dose-response curves are calculated by dividing the antagonized dose-response curve IC50 value by the unantagonized IC50 value. IC50 values represent the mean of two to four tissues. IC50 estimates and their associated standard errors are determined by using a computerized nonlinear least-squares method. (MINSQ Least Squares Parameter Estimation, version 3.05; MicroMath Inc., 1999.)

Data set [9] addresses T4, δ receptor. Conditions: for maximum percentage inhibition of SNC-80 stimulated [35S]GTP-γ-S binding: δ receptors, partial inhibition with increasing concentrations.
For data set [10], the target named is T5, μ receptor. Nature of the data set: biochemical. Conditions: read-out: agonist activity Emax % μ.
Data set [11] concerns the target T7, δ receptor (mouse vas deferens). Nature of the data set: Mouse vas deferens (MVD) smooth muscle bioassay. Conditions: inhibition of electrically stimulated contractions; read-out: agonist activity MVD (δ) IC50. The method, then: as §1, §2, §3
Data set [12] concerns the target T6, κ receptor. As to conditions: read-out: antagonist activity apparent Ki (nM ± SD) κ.
Where [13] appears, read: displacement of [3H]DADLE (1.3-2.0 nM), rat brain membranes, 100 nM DAMGO to block μ sites, read-out: Ki (nM) ± SEM δ.

What is called melting point is the temperature, or range, at which the solid turns liquid. The IC50 is the concentration that gives 50% inhibition. Usually Emax stands for the maximal effect, on the per cent scale that the assay sets.

Where two headings read alike, the source gives them in different places. Some results are limits rather than exact numbers.

T5 sequence (A0ACM8Q262 1-400): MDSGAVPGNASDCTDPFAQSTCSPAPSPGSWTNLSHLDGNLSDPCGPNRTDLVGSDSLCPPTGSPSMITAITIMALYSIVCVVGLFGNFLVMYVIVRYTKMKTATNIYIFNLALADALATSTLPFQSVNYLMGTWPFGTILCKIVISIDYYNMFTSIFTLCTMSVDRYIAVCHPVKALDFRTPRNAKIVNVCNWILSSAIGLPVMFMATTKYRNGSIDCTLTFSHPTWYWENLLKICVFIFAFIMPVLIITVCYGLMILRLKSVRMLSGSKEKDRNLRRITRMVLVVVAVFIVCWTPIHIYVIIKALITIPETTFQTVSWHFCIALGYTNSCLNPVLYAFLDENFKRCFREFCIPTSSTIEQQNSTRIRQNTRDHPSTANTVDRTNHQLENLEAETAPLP
T1 sequence (P41144 whole entry): as the sequence (P41144 whole entry) above

`CN1CCC23c4c5ccc(O)c4OC2c2ncc(-c4ccc(Br)cc4)cc2CC3(O)C1C5` (stereo not drawn) [7e, 5′-(4-Bromophenyl)-6,7-didehydro-3,14-dihydroxy-4,5α-epoxy-17-methylpyrido[2′,3′:6,7]morphinan] showed a melting point of 196 to 198 °C. The “selectivity ratio κ/δ” value at opioid κ receptor [1] is recorded as 108. At opioid δ receptor, this compound gave a Ki of 4 ± 0.3 nM. Further, the “selectivity ratio μ/δ” value on opioid μ receptor [2] stood at 49. On opioid μ receptor [3], this compound displayed a Ki of 196 ± 4 nM. The same compound showed a Ki on opioid κ receptor [4] of 432 ± 18 nM.

For the compound `COc1ccc2c3c1OC1c4ncc(-c5ccc(Br)cc5)cc4CC4(O)C(C2)N(C)CCC314` (stereo not drawn) [7p, 5′-(4-bromophenyl)-6,7-didehydro-4,5α-epoxy-14-hydroxy-3-methoxy-17-methyl-pyrido[2′,3′:6,7]morphinan], the melting point is above 230 °C. Besides, the “selectivity ratio κ/δ” value at opioid κ receptor [1] was 320. On opioid δ receptor, the Ki amounted to 23 ± 1.3 nM. Besides, the “selectivity ratio μ/δ” value on opioid μ receptor [2] was 82. Besides, the Ki at opioid μ receptor [3] was 1890 ± 72 nM. The Ki on opioid κ receptor [4] amounted to 7370 ± 522 nM.

The compound `COc1ccc2c3c1OC1c4ncc(-c5ccccc5)cc4CC4(O)C(C2)N(C)CCC314` (stereo not drawn) [7n, 6,7-didehydro-4,5α-epoxy-14-hydroxy-3-methoxy-17-methyl-5′-phenylpyrido[2′,3′:6,7]-morphinan] yielded a melting point above 250 °C. Also, the “selectivity ratio κ/δ” value on opioid κ receptor [1] is above 294. The same compound gave a Ki at opioid δ receptor of 34 ± 0.63 nM. Besides, the “selectivity ratio μ/δ” value on opioid μ receptor [2] turned out to be 26. At opioid μ receptor [3], this compound yielded a Ki of 894 ± 19 nM. Also, the Ki on opioid κ receptor [4] was above 10000 nM.

`CN1CC[C@]23c4c5ccc(O)c4O[C@H]2c2ncc(-c4ccc(Cl)cc4)cc2C[C@@]3(O)[C@H]1C5` [7d, 5′-(4-Chlorophenyl)-6,7-didehydro-3,14-dihydroxy-4,5α-epoxy-17-methylpyrido[2′,3′:6,7]morphinan] had a melting point of 196 to 198 °C. Further, the “% nociception @ 300 nmol” value in the data set on mice (icv, 300 nmol, mouse tail-flick) was found to be 43% @ 300 nmol. Besides, the “factor that prevented determining the A50 value” in the data set with mice (icv, mouse tail-flick) is listed as “lack of potency”. Moreover, in the data set with mice, the naloxone sensitivity entry is “partial”. For the same compound, at opioid κ receptor [1], the “selectivity ratio κ/δ” value came out at 118 and the Ki came out at 468 ± 17 nM. On opioid δ receptor, this compound yielded a Ki of 3.96 ± 0.23 nM. In addition, the Ki on δ receptor [5] stood at 17 nM. Further, at opioid μ receptor [2], the “selectivity ratio μ/δ” value is given as 58 and the Ki amounted to 230 ± 10 nM. On μ receptor [6], the Ki is above 1000 nM. In addition, the Ki at κ receptor [7] was found to be 767 ± 54 nM. Besides, in [8], the Kb amounted to 38.2 ± 14.7 nM and the “antagonist activity MVD (δ) Ke” value was found to be 38 nM.

For the compound `CN1CC[C@]23c4c5ccc(O)c4O[C@H]2c2ncc(-c4ccccc4)cc2C[C@@]3(O)[C@H]1C5` [7c, 6,7-Didehydro-3,14-dihydroxy-4,5α-epoxy-17-methyl-5′-phenylpyrido[2′,3′:6,7]morphinan], the melting point was in the range of 190 to 192 °C. The “% nociception @ 100 nmol” value in the data set on mice (icv, 100 nmol, mouse tail-flick) worked out at 64% @ 100 nmol. The “factor that prevented determining the A50 value” in the data set with mice (icv, mouse tail-flick) is “lack of efficacy”. In addition, the naloxone sensitivity entry with mice is “no”. For the same compound, at opioid κ receptor [1], the “selectivity ratio κ/δ” value stood at 124 and the Ki stood at 360 ± 17 nM. The Ki on opioid δ receptor (setting [13]) worked out at 2.9 ± 0.12 nM. Further, the “maximum percentage inhibition of SNC-80 stimulated [35S]GTP-γ-S binding” value on δ receptor [9] is recorded as 61±3%. Further, half-maximal inhibition against δ receptor [5] (IC50) was put at 920 nM. In addition, at opioid μ receptor [2], the “selectivity ratio μ/δ” value was found to be 9 and the Ki is 26 ± 0.96 nM. Moreover, the Emax on μ receptor [10] came to 27%. The IC50 in [11] amounted to 213 ± 55.8 nM. In addition, the Ki on μ receptor [6] was above 1000 nM.

The compound `CN1CC[C@]23c4c5ccc(O)c4O[C@H]2c2ncc(-c4ccc(Cl)cc4Cl)cc2C[C@H]3[C@H]1C5` [7k, 5′-(2,4-Dichlorophenyl)-6,7-didehydro-4,5α-epoxy-3-hydroxy-17-methylpyrido[2′,3′:6,7]morphinan] came in with a melting point of 198 to 200 °C. In addition, the “% nociception @ 60 nmol” value in the data set on mice (icv, 60 nmol, mouse tail-flick) was found to be 40% @ 60 nmol^e. Also, in the data set with mice (icv, mouse tail-flick), the “factor that prevented determining the A50 value” is recorded as “lack of efficacy”. For the same compound, at opioid κ receptor [1], the “selectivity ratio κ/δ” value amounted to 366 and the Ki was 403 ± 9 nM. In addition, the “enhancement in binding affinity at the δ receptor relative to 7h” value at opioid δ receptor came to 4 fold. Also, on opioid δ receptor (setting [13]), the Ki stood at 1.1 nM. Moreover, the “improvement in antagonist potency at the δ receptor relative to 7h” value on δ receptor [9] is on record as 10 fold. On δ receptor [5], the Ki stood at 1.08 ± 0.11 nM. In addition, on opioid μ receptor [2], the “selectivity ratio μ/δ” value stood at 88 and the Ki stood at 97 ± 4 nM. The maximum response (Emax) at μ receptor [10] stood at 51 ± 5%. Also, the Ki at κ receptor [12] was determined as 308 ± 21 nM. Also, on μ receptor [6], the Ki is above 1000 nM. Further, in data set [8], the Kb is 5.02 ± 1.56 nM and the “antagonist activity MVD (δ) Ke” value amounted to 5 nM.

`CN1CC[C@]23c4c5ccc(O)c4O[C@H]2c2ncc(-c4ccc(Br)cc4)cc2C[C@H]3[C@H]1C5` [7i, 5′-(4-Bromophenyl)-6,7-didehydro-4,5α-epoxy-3-hydroxy-17-methylpyrido[2′,3′:6,7]morphinan] returned a melting point of 186 to 188 °C. Further, in the data set with mice (icv, mouse tail-flick, at time of peak drug effect), the A50 is 47.2 nmol. Moreover, the naloxone sensitivity entry in the data set with mice was “yes”. For the same compound, on opioid κ receptor [1], the “selectivity ratio κ/δ” value was 18 and the Ki turned out to be 91 ± 6 nM. Moreover, the Ki on opioid δ receptor (setting [13]) came to 5 ± 0.6 nM. The “maximum percentage inhibition of SNC-80 stimulated [35S]GTP-γ-S binding” value on δ receptor [9] came to 69±3%. This compound also returned an IC50 at δ receptor [5] of 55 nM. In addition, at opioid μ receptor [2], the “selectivity ratio μ/δ” value is 40 and the Ki stood at 200 ± 11 nM. The maximal response (Emax) on μ receptor [10] turned out to be 59 ± 3%. For the same compound, the Ki at κ receptor [12] came to 265 ± 29 nM. Moreover, the Ki on μ receptor [6] is above 1000 nM. This compound returned a Kb in data set [8] of 20 ± 6.59 nM.

On to `Oc1ccc2c3c1O[C@H]1c4[nH]c5ccccc5c4C[C@@]4(O)C(C2)N(CC2CC2)CC[C@]314` [1, NTI, reference compound], for which the Ki on μ receptor [6] is 3.21 ± 0.2 nM; at κ receptor [7], 8.85 ± 0.8 nM.

The values are drawn from patent publication US7541364B2, “Pyridomorphinans, pyridazinomorphinans and use thereof” (priority 2003, dated 2009).
